Results taken from patent publication US9605064B2, “Methods and compositions for treatment of skin disorders” (AbbVie Biotechnology Ltd, priority 2006, dated 2017).
Marks after values point to notes of the source that are not given here.

Tests used:
[1] = tested on: patients with chronic plaque psoriasis; assay: PGA, 16-week open-label Phase IIIb trial after suboptimal response to ETN, MTX or NB-UVB; format: in vivo, human; conditions: week 16
Excerpt: (§1) This 16-week, multicenter, open-label, Phase IIIb trial enrolled patients with chronic plaque psoriasis who were having a suboptimal response to ETN (Physician's Global Assessment [PGA]≧mild with months of therapy, or ≧3 months of therapy and deterioration of efficacy), MTX (PGA≧mild with ≧4 months of therapy), or narrow-band ultraviolet B (NB-UVB) phototherapy (PGA moderate with months of therapy). […] The primary endpoint was the proportion of patients who achieved PGA of clear or minimal at week 16. A secondary endpoint was the proportion achieving ≧1 grade of PGA improvement. Safety was assessed throughout the study. Efficacy analyses were intention to treat, with nonresponder imputation used for missing data. Efficacy and safety results were analyzed overall and for each prior-treatment group.

[2] = tested on: patients with chronic plaque psoriasis; conditions: in vivo
Excerpt: as §1

[3] = tested on: adult patients with moderate to severe chronic plaque psoriasis; assay: Adverse events, REVEAL 52-week Phase III trial
[4] = tested on: patients with moderate to severe chronic plaque psoriasis; assay: DLQI, Phase II 12-week placebo-controlled trial with 48-week extension; format: in vivo, human; conditions: for Mean change in DLQI from baseline at Week 60: observed values; for DLQI = 0 / DLQI = 1 / DLQI = 2 / DLQI ≧ 3 / patients who achieved DLQI=0: pooled arms
Excerpt: The DLQI is a validated instrument used to measure disease impact on daily function.
The DLQI is a validated instrument used to assess dermatologic-related functional limitations, and was used as the patient related outcomes (PRO) measure. The DLQI consists of ten items and an overall scoring range of 0-30, where higher scores represent greater quality of life impairment and lower scores represent lower quality of life impairment. The DLQI also includes well-established properties of reliability and validity for the DLQI total score in a dermatology setting and measures six subcategories: symptoms and feelings, daily activities, leisure, work/school, personal relationships, and treatment.
Patients who discontinued before the time point were not included in this analysis. Ranges of DLQI scores were evaluated for their correspondence to categories of disease impact and are described below in Table 1.
PROs were assessed using the DLQI. The DLQI is a validated instrument used to assess dermatologic-related functional limitations.

[5] = tested on: patients with moderate to severe chronic plaque psoriasis; conditions: in vivo
[6] = Adalimumab Treatment Group (540.5 PY)
[7] = Adalimumab Treatment Group, 52 weeks (540.5 PYs)
[8] = Period A, adalimumab-treated patients
[9] = PASI 75-99 responders who had DLQI>0 at Week 60
[10] = PASI improvement 50-74 (n = 18), Week 60
[11] = PASI improvement 75-99 (n = 54), Week 60
[12] = PASI improvement 100 (n = 29), Week 60
[13] = PASI improvement <50 (n = 5), Week 60
[14] = patients with PASI 75-99, Week 60
[15] = patients with PASI 100, Week 60

## Adalimumab: a human anti-TNF mAb, described in U.S. Pat. No. 6,090,382 as D2E7 (HUMIRA, Abbott Laboratories)
[1]; all patients
  ≧1 grade improvement in PGA: 75.0%
[1]; prior ETN group
  PGA of clear or minimal: 48.8%
  ≧1 grade improvement in PGA: 72.0%
[1]; prior MTX group
  PGA of clear or minimal: 61.0%
  ≧1 grade improvement in PGA: 78.0%
[1]; prior NB-UVB group
  PGA of clear or minimal: 48.3%
  ≧1 grade improvement in PGA: 79.3%
[2]
  serious infection: One subject
[3]; 52-week study
  lymphomas: no lymphomas were diagnosed
  opportunistic infection: One case of oral candidiasis
[3]; 52-week study, patient PPD+ve at baseline, non-compliant with INH prophylaxis
  tuberculosis: one case of presumptive tuberculosis
[3]; [6]
  Allergic Reaction, rate: 0.002 Event/PY
  Congestive Heart Failure, rate: 0.002 Event/PY
  Demyelinating Disorder, rate: 0 Event/PY
  Injection Site Reaction, rate: 0.017 Event/PY
  Lupus-like Syndrome, rate: 0 Event/PY
  Lymphoma, rate: 0 Event/PY
  Malignancies, excluding NMSC + lymphoma, rate: 0.004 Event/PY
  Non-melanoma skin cancers, rate: 0.013 Event/PY
  Tuberculosis (TB), rate: 0.002 Event/PY
[3]; [7]
  AEs leading to withdrawal, rate: 0.078 Event/PY
  Any AE, rate: 3.991 Event/PY
  Serious AEs, rate: 0.061 Event/PY
[3]; Period A (250.2 PY)
  Allergic Reaction, rate: 0.004 Event/PY
  Congestive Heart Failure, rate: 0.004 Event/PY
  Demyelinating Disorder, rate: 0 Event/PY
  Injection Site Reaction, rate: 0.276 Event/PY
  Lupus-like Syndrome, rate: 0 Event/PY
  Lymphoma, rate: 0 Event/PY
  Malignancies, excluding NMSC + lymphoma, rate: 0.008 Event/PY
  Non-melanoma skin cancers, rate: 0.016 Event/PY
  Tuberculosis (TB), rate: 0 Event/PY
[3]; Period A (250.2 PYs)
  AEs leading to withdrawal, rate: 0.072 Event/PY
  Any AE, rate: 4.616 Event/PY
  Serious AEs, rate: 0.068 Event/PY
[3]; Period A (N = 814)
  AEs leading to withdrawal, percentage: 1.7%
  Allergic Reaction, percentage: 1%
  Any AE, percentage: 62.2‡ %
  Congestive Heart Failure, percentage: 1%
  Demyelinating Disorder, percentage: 0%
  Injection Site Reaction, percentage: 6.9%
  Lupus-like Syndrome, percentage: 0%
  Lymphoma, percentage: 0%
  Malignancies, excluding NMSC + lymphoma, percentage: 0.2%
  Non-melanoma skin cancers, percentage: 0.5%
  Opportunistic Infections, excluding TB, percentage: 0%
  Serious AEs, percentage: 1.8%
  Serious Infectious AEs, percentage: 0.6%
  Severe Infectious AEs, percentage: 0.7%
  Tuberculosis (TB), percentage: 0%
[3]; Period A (N = 814), common AE ≧5%
  Nasopharyngitis: 45 (5.3) n (%)
[3]; Period A (weeks 0-16)
  patients with serious AEs: 1.8%
[3]; [8]
  Nasopharyngitis: 5.3%
  Sinusitis: 2.7%
  upper respiratory tract infections: 7.2%
[4]; 40 mg eow, week 12
  patients with change from large/extremely large DLQI impact at baseline to no/small impact: 85%
[4]; 40 mg eow, week 24
  patients with change from large/extremely large DLQI impact at baseline to no/small impact: 85%
[4]; 40 mg eow, week 36
  patients with change from large/extremely large DLQI impact at baseline to no/small impact: 83%
[4]; 40 mg eow, week 60
  patients with change from large/extremely large DLQI impact at baseline to no/small impact: 83%
[4]; 40 mg weekly, Week 12
  mean change in DLQI: −11.5*
  patients with change from large/extremely large DLQI impact at baseline to no/small impact: 86%
[4]; 40 mg weekly, week 24
  patients with change from large/extremely large DLQI impact at baseline to no/small impact: 88%
[4]; 40 mg weekly, week 36
  patients with change from large/extremely large DLQI impact at baseline to no/small impact: 91%
[4]; 40 mg weekly, week 60
  patients with change from large/extremely large DLQI impact at baseline to no/small impact: 100%
[4]; PASI 50-74
  Mean change in DLQI from baseline at Week 60: −8.8
[4]; PASI 75-99
  Mean change in DLQI from baseline at Week 60: −11.5
[4]; [9]
  embarrassment/self-consciousness because of skin condition: approximately 20%
  persistent symptoms of itching, soreness, pain, or stinging of the skin: approximately 50%
[4]; PASI 100
  Mean change in DLQI from baseline at Week 60: −11.1
[4]; PASI <50
  Mean change in DLQI from baseline at Week 60: −6.0
[4]; [10]
  DLQI = 0: 5 (28) n (%)
  DLQI = 1: 3 (17) n (%)
  DLQI = 2: 3 (17) n (%)
  DLQI ≧ 3: 7 (39) n (%)
[4]; [11]
  DLQI = 0: 20 (37) n (%)
  DLQI = 1: 19 (35) n (%)
  DLQI = 2: 4 (7) n (%)
  DLQI ≧ 3: 11 (20) n (%)
[4]; [12]
  DLQI = 0: 23 (79) n (%)
  DLQI = 1: 3 (10) n (%)
  DLQI = 2: 3 (10) n (%)
  DLQI ≧ 3: 0 (0) n (%)
[4]; [13]
  DLQI = 0: 0 (0) n (%)
  DLQI = 1: 1 (20.0) n (%)
  DLQI = 2: 2 (40) n (%)
  DLQI ≧ 3: 2 (40) n (%)
[4]; adalimumab-treated patients
  mean change in DLQI: ≥ 10 points
[4]; baseline PASI ≧10 and DLQI >10, 40 mg eow, Week 12
  DLQI mean change from baseline: −15
[4]; baseline PASI ≧10 and DLQI >10, 40 mg eow, Week 24
  DLQI mean change from baseline: −14
[4]; baseline PASI ≧10 and DLQI >10, 40 mg eow, Week 36
  DLQI mean change from baseline: −15
[4]; baseline PASI ≧10 and DLQI >10, 40 mg eow, Week 60
  DLQI mean change from baseline: −15
[4]; baseline PASI ≧10 and DLQI >10, 40 mg weekly, Week 12
  DLQI mean change from baseline: −16
[4]; baseline PASI ≧10 and DLQI >10, 40 mg weekly, Week 24
  DLQI mean change from baseline: −17
[4]; baseline PASI ≧10 and DLQI >10, 40 mg weekly, Week 36
  DLQI mean change from baseline: −18
[4]; baseline PASI ≧10 and DLQI >10, 40 mg weekly, Week 60
  DLQI mean change from baseline: −17
[4]; baseline PASI ≧10 and DLQI >10, placebo/adalimumab 40 mg eow, Week 24
  DLQI mean change from baseline: −12
[4]; baseline PASI ≧10 and DLQI >10, placebo/adalimumab 40 mg eow, Week 36
  DLQI mean change from baseline: −14
[4]; baseline PASI ≧10 and DLQI >10, placebo/adalimumab 40 mg eow, Week 60
  DLQI mean change from baseline: −12
[4]; baseline PASI ≧10 and DLQI >10, weekly, Week 60
  mean DLQI score: 0.7
[4]; from dosage escalation to Week 60, 18 of the 30 patients who switched to weekly dosing
  Mean improvement in DLQI: 2.1
[4]; of the total 106 patients receiving adalimumab at Week 60
  patients who achieved DLQI=0: 48 patients
[4]; patients receiving adalimumab at Week 60
  patients who achieved DLQI=0: approximately 45%
[4]; patients with 50-74, Week 60
  patients who achieved a DLQI=0: 28%
[4]; patients with PASI 50-74, Week 60
  mean change in DLQI from baseline: −8
[4]; [14]
  mean change in DLQI from baseline: −11.5
  patients who achieved a DLQI=0: 37%
[4]; [15]
  mean change in DLQI from baseline: −11.1
  patients who achieved a DLQI=0: 79%
[4]; patients with PASI<50, Week 60
  mean change in DLQI from baseline: −6
[4]; placebo patients switched to adalimumab at week 12, week 24
  patients with change from large/extremely large DLQI impact at baseline to no/small impact: 67%
[4]; placebo patients switched to adalimumab at week 12, week 36
  patients with change from large/extremely large DLQI impact at baseline to no/small impact: 79%
[4]; placebo patients switched to adalimumab at week 12, week 60
  patients with change from large/extremely large DLQI impact at baseline to no/small impact: 71%
[4]; randomized to adalimumab, week 12
  patients with change from large/extremely large DLQI impact at baseline to no/small impact: 85%
[5]
  serious infections: no patients experienced serious infections
